Here are results for 1 compound from article PMC7206119, “RIP1 inhibition blocks inflammatory diseases but not tumor growth or metastases” (Cell Death and Differentiation, 2019).

Structures are written as SMILES.

Common to all, as to assay: biochemical
The target of one test is ZAP70 (Homo sapiens, UniProt P43403). On the set-up: gene ZAP70; Thermo Fisher SelectScreen kinase panel: Z'-LYTE and Adapta activity, LanthaScreen binding. How it is done:
5 88 GNE684 was tested in Thermo Fisher Scientific SelectScreen assay (Madison, WI) 89 against 221 representative kinases at a concentration of 10 µM, which is 476-fold greater than the Ki app 90 for GNE684 against human RIP1 in the RIP1 enzyme 91 assay. The kinase assays were carried out using Z'-LYTE and Adapta activity and 92 LanthaScreen binding assays (Thermo Fisher Scientific, Madison WI) following 93 protocols developed and performed by Thermo Fisher Scientific 94 (https://www.thermofisher.com/us/en/home/products-and-services/services/custom-95 services/screening-and-profiling-services/selectscreen-profiling-service/selectscreen-96 kinase-profiling-service.html). 97 GNE684 was also tested against 468 kinases in the KINOMEscan scanMAX kinase 98 binding assay panel at a concentration of 10 µM following protocols developed and 99 performed by DiscoverX (http://www.discoverx.com/kinase_profiling).

The next test deals with T1, MSSK1 (Homo sapiens, UniProt Q9UPE1).
T1 construct: gene SRPK3
Also noted: Thermo Fisher SelectScreen kinase panel: Z'-LYTE and Adapta activity, LanthaScreen binding. A digest of the protocol: (§1)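 Single-concentration panel: 10 µM GNE684 in KINOMEscan scanMAX binding (468 kinases) and in a 221-kinase panel run as Z'-LYTE/Adapta activity or LanthaScreen binding assays.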

The next test addresses T2, Abl (Homo sapiens, UniProt P00519).
T2 construct: gene ABL1
On the set-up: Thermo Fisher SelectScreen kinase panel: Z'-LYTE and Adapta activity, LanthaScreen binding. A digest of the protocol: as §1

A further test concerns the target SRPK1 (Homo sapiens, UniProt Q96SB4). On the set-up: Thermo Fisher SelectScreen kinase panel: Z'-LYTE and Adapta activity, LanthaScreen binding. A digest of the protocol: as §1
For the next test, the target named is T3, p70S6K (Homo sapiens, UniProt P23443).
T3 construct: gene RPS6KB1
Also noted: Thermo Fisher SelectScreen kinase panel: Z'-LYTE and Adapta activity, LanthaScreen binding. The procedure, abridged: as §1

For a further test, the target named is T4, p38_alpha(direct) (Homo sapiens, UniProt Q16539).
T4 construct: gene MAPK14; direct
T4 sequence (Q16539 whole entry): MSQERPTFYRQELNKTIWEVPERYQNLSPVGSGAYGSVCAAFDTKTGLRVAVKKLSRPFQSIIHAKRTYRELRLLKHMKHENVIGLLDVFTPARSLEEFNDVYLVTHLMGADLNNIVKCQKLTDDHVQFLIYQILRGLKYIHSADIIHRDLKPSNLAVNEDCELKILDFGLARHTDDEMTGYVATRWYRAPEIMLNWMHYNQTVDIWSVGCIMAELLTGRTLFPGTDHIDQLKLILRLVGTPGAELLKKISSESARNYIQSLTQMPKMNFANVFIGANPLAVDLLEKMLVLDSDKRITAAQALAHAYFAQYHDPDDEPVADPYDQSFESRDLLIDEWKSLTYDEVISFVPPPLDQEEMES
Also noted: Thermo Fisher SelectScreen kinase panel: Z'-LYTE and Adapta activity, LanthaScreen binding. The procedure, abridged: as §1

The target of the next test is T5, JNK2 (Homo sapiens, UniProt P45984).
T5 construct: gene MAPK9
Also noted: Thermo Fisher SelectScreen kinase panel: Z'-LYTE and Adapta activity, LanthaScreen binding. The procedure, abridged:
as §1

For a further test, the target named is FLT3 (Homo sapiens, UniProt P36888). On the set-up: Thermo Fisher SelectScreen kinase panel: Z'-LYTE and Adapta activity, LanthaScreen binding. The procedure, abridged:
as §1

The next test has as its target STK33 (Homo sapiens, UniProt Q9BYT3). Also noted: Thermo Fisher SelectScreen kinase panel: Z'-LYTE and Adapta activity, LanthaScreen binding. A digest of the protocol: as §1
A further test has as its target T6, IKK-beta (Homo sapiens, UniProt O14920).
T6 construct: gene IKBKB
Also noted: Thermo Fisher SelectScreen kinase panel: Z'-LYTE and Adapta activity, LanthaScreen binding. A digest of the protocol: as §1

The next test concerns the target T7, MST2 (Homo sapiens, UniProt Q13188).
T7 construct: gene STK3
On the set-up: Thermo Fisher SelectScreen kinase panel: Z'-LYTE and Adapta activity, LanthaScreen binding. The procedure, abridged:
as §1

The target of the next test is ACVR1B (Homo sapiens, UniProt P36896). Also noted: Thermo Fisher SelectScreen kinase panel: Z'-LYTE and Adapta activity, LanthaScreen binding. A digest of the protocol:
as §1

A further test deals with T8, Aurora_B (Homo sapiens, UniProt Q96GD4).
T8 construct: gene AURKB
T8 sequence (Q96GD4 whole entry): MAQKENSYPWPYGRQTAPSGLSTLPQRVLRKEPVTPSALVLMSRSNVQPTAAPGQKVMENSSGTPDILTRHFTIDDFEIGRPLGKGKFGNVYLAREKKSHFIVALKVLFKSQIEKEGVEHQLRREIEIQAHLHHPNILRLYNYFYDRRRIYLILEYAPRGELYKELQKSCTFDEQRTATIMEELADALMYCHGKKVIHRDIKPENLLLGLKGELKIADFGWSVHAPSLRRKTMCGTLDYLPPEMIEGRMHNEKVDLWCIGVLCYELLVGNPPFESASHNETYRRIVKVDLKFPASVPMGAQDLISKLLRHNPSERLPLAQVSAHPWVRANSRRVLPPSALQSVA
Also noted: Thermo Fisher SelectScreen kinase panel: Z'-LYTE and Adapta activity, LanthaScreen binding. The procedure, abridged: as §1

The next test has as its target T9, CK1_alpha1 (Homo sapiens, UniProt P48729).
T9 construct: gene CSNK1A1
On the set-up: Thermo Fisher SelectScreen kinase panel: Z'-LYTE and Adapta activity, LanthaScreen binding. A digest of the protocol: as §1

The next test deals with EPHA8 (Homo sapiens, UniProt P29322). Also noted: Thermo Fisher SelectScreen kinase panel: Z'-LYTE and Adapta activity, LanthaScreen binding. A digest of the protocol: as §1
The target of another test is RAF1(Y340D,Y341D) (Homo sapiens, UniProt P04049, Y340D/Y341D). On the set-up: Thermo Fisher SelectScreen kinase panel: Z'-LYTE and Adapta activity, LanthaScreen binding. A digest of the protocol:
as §1

For another test, the target named is T10, PKD1 (Homo sapiens, UniProt Q15139).
T10 construct: gene PRKD1
T10 sequence (Q15139 whole entry): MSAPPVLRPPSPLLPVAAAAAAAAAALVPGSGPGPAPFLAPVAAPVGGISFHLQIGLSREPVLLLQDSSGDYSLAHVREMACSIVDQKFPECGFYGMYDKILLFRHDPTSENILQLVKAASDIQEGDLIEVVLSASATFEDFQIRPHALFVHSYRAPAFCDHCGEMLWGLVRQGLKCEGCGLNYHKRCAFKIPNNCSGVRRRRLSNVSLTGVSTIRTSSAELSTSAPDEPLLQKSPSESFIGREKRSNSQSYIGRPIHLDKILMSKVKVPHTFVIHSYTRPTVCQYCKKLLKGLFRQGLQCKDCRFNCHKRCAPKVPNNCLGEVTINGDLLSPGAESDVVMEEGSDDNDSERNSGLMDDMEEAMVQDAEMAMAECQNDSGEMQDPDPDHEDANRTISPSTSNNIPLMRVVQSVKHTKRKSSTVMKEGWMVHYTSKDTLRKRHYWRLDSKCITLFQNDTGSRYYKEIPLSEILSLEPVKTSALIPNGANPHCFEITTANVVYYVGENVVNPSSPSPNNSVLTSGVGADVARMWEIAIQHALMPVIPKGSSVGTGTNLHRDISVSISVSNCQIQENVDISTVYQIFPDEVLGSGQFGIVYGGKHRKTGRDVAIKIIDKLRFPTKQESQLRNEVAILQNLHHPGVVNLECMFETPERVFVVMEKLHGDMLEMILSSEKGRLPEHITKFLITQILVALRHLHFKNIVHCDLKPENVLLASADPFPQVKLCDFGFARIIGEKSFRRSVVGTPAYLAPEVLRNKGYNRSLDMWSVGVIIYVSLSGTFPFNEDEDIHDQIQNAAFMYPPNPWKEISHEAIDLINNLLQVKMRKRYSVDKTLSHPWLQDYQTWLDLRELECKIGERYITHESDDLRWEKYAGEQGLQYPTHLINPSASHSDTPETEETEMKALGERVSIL
On the set-up: Thermo Fisher SelectScreen kinase panel: Z'-LYTE and Adapta activity, LanthaScreen binding. The procedure, abridged: as §1

The target in the next test is T11, Rse (Homo sapiens, UniProt Q06418).
T11 construct: gene TYRO3
On the set-up: Thermo Fisher SelectScreen kinase panel: Z'-LYTE and Adapta activity, LanthaScreen binding. A digest of the protocol: as §1

Another test has as its target LIMK1 (Homo sapiens, UniProt P53667). Also noted: Thermo Fisher SelectScreen kinase panel: Z'-LYTE and Adapta activity, LanthaScreen binding. The procedure, abridged: as §1
Another test has as its target DYRK4 (Homo sapiens, UniProt Q9NR20). Also noted: Thermo Fisher SelectScreen kinase panel: Z'-LYTE and Adapta activity, LanthaScreen binding. The procedure, abridged:
as §1

The target of another test is CLK2 (Homo sapiens, UniProt P49760). Also noted: Thermo Fisher SelectScreen kinase panel: Z'-LYTE and Adapta activity, LanthaScreen binding. A digest of the protocol: as §1
Chain of CLK2 (P49760 whole entry): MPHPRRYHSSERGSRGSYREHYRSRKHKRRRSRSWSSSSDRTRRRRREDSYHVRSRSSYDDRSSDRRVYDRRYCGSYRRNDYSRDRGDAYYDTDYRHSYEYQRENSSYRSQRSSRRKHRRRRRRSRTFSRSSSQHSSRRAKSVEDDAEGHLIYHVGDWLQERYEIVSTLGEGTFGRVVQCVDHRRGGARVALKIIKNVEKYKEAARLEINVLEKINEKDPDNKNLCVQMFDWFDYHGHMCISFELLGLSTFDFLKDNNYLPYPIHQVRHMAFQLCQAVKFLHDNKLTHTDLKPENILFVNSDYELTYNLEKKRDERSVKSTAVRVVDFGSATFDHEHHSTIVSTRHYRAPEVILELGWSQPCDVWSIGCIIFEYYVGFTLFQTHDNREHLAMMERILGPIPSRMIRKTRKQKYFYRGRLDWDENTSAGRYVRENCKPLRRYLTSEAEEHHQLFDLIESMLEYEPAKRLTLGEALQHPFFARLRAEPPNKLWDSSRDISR

Chain of LIMK1 (P53667 whole entry): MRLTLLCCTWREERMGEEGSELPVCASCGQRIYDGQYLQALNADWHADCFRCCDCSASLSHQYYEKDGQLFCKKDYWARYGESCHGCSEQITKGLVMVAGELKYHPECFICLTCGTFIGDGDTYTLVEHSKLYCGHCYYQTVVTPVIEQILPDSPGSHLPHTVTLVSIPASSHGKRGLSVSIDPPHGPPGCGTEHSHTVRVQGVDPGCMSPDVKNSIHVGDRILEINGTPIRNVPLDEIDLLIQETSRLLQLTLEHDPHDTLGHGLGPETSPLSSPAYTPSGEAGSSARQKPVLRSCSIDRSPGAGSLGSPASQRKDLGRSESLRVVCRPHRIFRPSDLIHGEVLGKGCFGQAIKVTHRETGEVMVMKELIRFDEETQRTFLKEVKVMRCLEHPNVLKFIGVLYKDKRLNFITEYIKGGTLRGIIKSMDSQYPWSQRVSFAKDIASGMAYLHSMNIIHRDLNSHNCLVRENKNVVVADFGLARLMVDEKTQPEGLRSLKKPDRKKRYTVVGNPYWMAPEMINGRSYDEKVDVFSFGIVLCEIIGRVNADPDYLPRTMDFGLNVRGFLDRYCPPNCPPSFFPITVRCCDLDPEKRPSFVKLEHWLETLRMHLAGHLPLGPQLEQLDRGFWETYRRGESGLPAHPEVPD
Chain of SRPK1 (Q96SB4 whole entry): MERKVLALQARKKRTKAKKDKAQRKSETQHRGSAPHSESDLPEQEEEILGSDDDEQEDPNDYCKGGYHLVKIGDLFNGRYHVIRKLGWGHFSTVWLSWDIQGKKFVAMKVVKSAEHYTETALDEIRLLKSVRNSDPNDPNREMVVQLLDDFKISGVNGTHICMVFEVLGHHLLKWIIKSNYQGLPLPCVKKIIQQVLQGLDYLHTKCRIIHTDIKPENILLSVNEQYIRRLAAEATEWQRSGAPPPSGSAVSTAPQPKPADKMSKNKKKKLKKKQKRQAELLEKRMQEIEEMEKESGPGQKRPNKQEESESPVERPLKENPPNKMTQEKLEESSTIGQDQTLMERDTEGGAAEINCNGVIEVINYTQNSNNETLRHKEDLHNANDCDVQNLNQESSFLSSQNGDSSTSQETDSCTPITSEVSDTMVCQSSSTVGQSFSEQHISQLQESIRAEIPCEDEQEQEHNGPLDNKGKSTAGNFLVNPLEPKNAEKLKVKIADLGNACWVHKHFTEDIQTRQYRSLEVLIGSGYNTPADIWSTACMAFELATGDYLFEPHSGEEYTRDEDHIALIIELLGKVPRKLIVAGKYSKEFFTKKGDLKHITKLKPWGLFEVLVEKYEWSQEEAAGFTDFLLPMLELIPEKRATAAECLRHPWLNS
Chain of ZAP70 (P43403 whole entry): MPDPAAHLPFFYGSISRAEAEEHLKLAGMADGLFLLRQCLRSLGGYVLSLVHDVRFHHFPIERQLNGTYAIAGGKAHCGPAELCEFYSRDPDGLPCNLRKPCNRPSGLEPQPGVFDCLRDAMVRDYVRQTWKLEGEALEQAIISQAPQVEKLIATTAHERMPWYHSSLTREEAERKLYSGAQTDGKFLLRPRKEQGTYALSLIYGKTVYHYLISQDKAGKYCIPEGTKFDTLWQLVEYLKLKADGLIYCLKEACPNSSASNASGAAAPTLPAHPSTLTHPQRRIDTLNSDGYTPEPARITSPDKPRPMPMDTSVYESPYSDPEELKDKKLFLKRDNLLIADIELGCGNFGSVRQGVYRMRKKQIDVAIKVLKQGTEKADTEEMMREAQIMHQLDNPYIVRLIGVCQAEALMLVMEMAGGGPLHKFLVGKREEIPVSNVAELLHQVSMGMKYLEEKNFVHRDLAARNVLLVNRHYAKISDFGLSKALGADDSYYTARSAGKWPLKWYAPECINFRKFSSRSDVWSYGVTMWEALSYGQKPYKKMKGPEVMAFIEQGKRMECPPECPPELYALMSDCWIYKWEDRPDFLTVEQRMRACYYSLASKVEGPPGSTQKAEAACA
T6 sequence (O14920 whole entry): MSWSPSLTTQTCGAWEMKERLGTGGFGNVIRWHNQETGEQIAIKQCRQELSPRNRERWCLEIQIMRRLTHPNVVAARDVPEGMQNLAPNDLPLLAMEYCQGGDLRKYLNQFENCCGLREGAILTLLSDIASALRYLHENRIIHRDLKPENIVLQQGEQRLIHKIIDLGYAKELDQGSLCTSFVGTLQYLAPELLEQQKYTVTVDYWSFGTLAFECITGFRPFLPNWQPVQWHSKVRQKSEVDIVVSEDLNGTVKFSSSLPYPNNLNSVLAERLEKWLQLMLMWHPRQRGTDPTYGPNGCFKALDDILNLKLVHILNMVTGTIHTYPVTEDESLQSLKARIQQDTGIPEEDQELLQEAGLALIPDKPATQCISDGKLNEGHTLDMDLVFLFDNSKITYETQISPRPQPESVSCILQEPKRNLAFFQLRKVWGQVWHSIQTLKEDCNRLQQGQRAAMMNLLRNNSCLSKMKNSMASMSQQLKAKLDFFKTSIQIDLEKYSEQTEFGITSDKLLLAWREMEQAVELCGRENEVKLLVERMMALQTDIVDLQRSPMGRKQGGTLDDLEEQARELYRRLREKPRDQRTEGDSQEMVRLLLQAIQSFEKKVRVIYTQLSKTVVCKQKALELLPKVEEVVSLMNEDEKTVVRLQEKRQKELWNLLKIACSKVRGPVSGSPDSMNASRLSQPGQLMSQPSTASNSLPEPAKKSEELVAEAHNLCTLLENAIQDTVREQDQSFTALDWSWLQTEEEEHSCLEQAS

What is called inhibition is the change of the read-out against control, counted positive when it falls. As to `COc1cc2c(cn1)N(C)C(=O)[C@@H](NC(=O)c1nc3n(n1)[C@H](c1ccccc1)CC3)CC2` [GNE684, (S)-N-((S)-7-methoxy-1-methyl-2-oxo-2,3,4,5-tetrahydro-1H-pyrido[3,4-b]azepin-3-yl)-5-phenyl-6,7-dihydro-5H-pyrrolo[1,2-b][1,2,4]triazole-2-carboxamide], the inhibition at 10 µM at ZAP70 is 1%; on MSSK1 it was 2.5%; on Abl, 2%; on SRPK1 it was -0.5%; at p70S6K it was 10%; at p38_alpha(direct) it was 3.5%. In addition, the inhibition at 10 µM at JNK2 was -4%; on FLT3, 10%; at STK33, 0%; on IKK-beta, 8.5%; at MST2, 5%; on ACVR1B it was -2%. In addition, the inhibition at 10 µM is 6.5% at Aurora_B; 3% at CK1_alpha1; 5.5% at EPHA8; -2% on RAF1(Y340D,Y341D); 3% on PKD1; 5% on Rse. The inhibition at 10 µM at LIMK1 came out at 8.5%; at DYRK4 it was 2%; on CLK2, 2.5%.
